Each compound was assayed against T1, mouse ENT-1 transporter (Mus musculus, UniProt Q9JIM1) (assay: Adenosine transport activity (ENT1, [3H]-adenosine uptake)). Details: stable cells expressing mouse ENT-1; [2,8-3H]-adenosine 6 nM, 20 min.
T1 construct: expressed in transfected cells
T1 sequence (Q9JIM1 1-460): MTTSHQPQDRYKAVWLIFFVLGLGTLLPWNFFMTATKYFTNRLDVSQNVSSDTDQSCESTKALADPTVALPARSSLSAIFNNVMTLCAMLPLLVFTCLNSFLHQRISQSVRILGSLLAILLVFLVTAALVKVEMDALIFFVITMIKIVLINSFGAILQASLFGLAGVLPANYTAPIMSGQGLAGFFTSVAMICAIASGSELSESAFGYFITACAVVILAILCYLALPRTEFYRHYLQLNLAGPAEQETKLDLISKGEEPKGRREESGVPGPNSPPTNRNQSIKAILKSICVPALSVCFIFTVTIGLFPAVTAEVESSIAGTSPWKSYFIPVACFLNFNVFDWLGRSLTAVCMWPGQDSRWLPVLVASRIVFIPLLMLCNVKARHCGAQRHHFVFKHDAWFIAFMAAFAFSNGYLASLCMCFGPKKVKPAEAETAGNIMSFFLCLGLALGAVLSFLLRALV
Format: cell-based
Method: To measure adenosine transport activity of ENT-1 mammalian cells, stable cells expressing the mouse ENT-1 transporter were plated on day 1 in 96-well culture plates at the density of 60,000 cells/well, in complete DMEM/F12 medium supplemented with glutamax, 10% FBS and 10 μg/ml puromycin. On day 2, the medium was aspirated and the cells were washed twice with uptake buffer (10 mM Hepes-Tris, pH 7.4 containing 150 mM NaCl, 1 mM CaCl2, 2.5 mM KCl, 2.5 mM MgSO4, 10 mM D-glucose) (UB). For inhibition experiments, cells were then incubated at RT with various concentrations of compounds with 1% DMSO final. Non-specific uptake was defined in the presence of 10 μM S-(4-Nitrobenzyl)-6-thioinosine (NBTI, Sigma Cat #N2255).
A solution containing [2,8-^3H]-adenosine 6 nM (40 Ci/mmol, American Radiolabeled chemicals Inc, Cat #ART 0287A) was then immediately added to the wells. The plates were then incubated for 20 min with gentle shaking and the reaction was stopped by aspiration of the mixture and washing (three times) with ice-cold UB. The cells were lysed by the addition of scintillation liquid, shaken 3 hours and the radioactivity in the cells was estimated using a microplates scintillation counter (TopCount NXT, Packard).

| Compound | IC50 [nM] |
| --- | --- |
| Cc1ncc(-c2ccc3c(c2)N(c2cncc(C(=O)N(C)C)n2)C(=O)C3(C)C)cn1 [Example 1, 6-(3,3-Dimethyl-6-(2-methylpyrimidin-5-yl)-2-oxoindolin-1-yl)-N,N-dimethylpyrazine-2-carboxamide] | 19.5 |
| Cc1ncc(-c2ccc3c(c2)N(c2cncc(C(=O)N4CCC4)n2)C(=O)C3(C)C)cn1 [Example 3, 1-(6-(Azetidine-1-carbonyl)pyrazin-2-yl)-3,3-dimethyl-6-(2-methylpyrimidin-5-yl)indolin-2-one] | 31.4 |
| Cc1ncc(-c2ccc3c(c2)N(c2cncc(C(=O)N(C)CC(F)(F)F)n2)C(=O)C3(C)C)cn1 [Example 4, 6-(3,3-Dimethyl-6-(2-methylpyrimidin-5-yl)-2-oxoindolin-1-yl)-N-methyl-N-(2,2,2-trifluoroethyl)pyrazine-2-carboxamide] | 513 |
| COCCN(C)C(=O)c1cncc(N2C(=O)C(C)(C)c3ccc(-c4cnc(C)nc4)cc32)n1 [Example 5, 6-(3,3-Dimethyl-6-(2-methylpyrimidin-5-yl)-2-oxoindolin-1-yl)-N-(2-methoxyethyl)-N-methylpyrazine-2-carboxamide] | 382 |
| Cc1ncc(-c2ccc3c(c2)N(c2cncc(C(=O)NCCO)n2)C(=O)C3(C)C)cn1 [Example 6, 6-(3,3-Dimethyl-6-(2-methylpyrimidin-5-yl)-2-oxoindolin-1-yl)-N-(2-hydroxyethyl)pyrazine-2-carboxamide] | 30 |
| Cc1ncc(-c2ccc3c(c2)N(c2cncc(C(=O)NCC(F)(F)F)n2)C(=O)C3(C)C)cn1 [Example 8, 6-(3,3-Dimethyl-6-(2-methylpyrimidin-5-yl)-2-oxoindolin-1-yl)-N-(2,2,2-trifluoroethyl)pyrazine-2-carboxamide] | 451 |
| Cc1ncc(-c2ccc3c(c2)N(c2cncc(C(=O)NC(C)C)n2)C(=O)C3(C)C)cn1 [Example 9, 6-(3,3-Dimethyl-6-(2-methylpyrimidin-5-yl)-2-oxoindolin-1-yl)-N-isopropylpyrazine-2-carboxamide] | 196 |
| Cc1ncc(-c2ccc3c(c2)N(c2cncc(C(N)=O)n2)C(=O)C3(C)C)cn1 [Example 10, 6-(3,3-Dimethyl-6-(2-methylpyrimidin-5-yl)-2-oxoindolin-1-yl)pyrazine-2-carboxamide] | 197 |
| Cc1ncc(-c2ccc3c(c2)N(c2cnc(C(=O)N(C)C(C)(C)C)cn2)C(=O)C3(C)C)cn1 [Example 12, N-(tert-Butyl)-5-(3,3-dimethyl-6-(2-methylpyrimidin-5-yl)-2-oxoindolin-1-yl)-N-methylpyrazine-2-carboxamide] | 927 |
| Cc1ncc(-c2ccc3c(c2)N(c2cnc(C(=O)N4CCC4)cn2)C(=O)C3(C)C)cn1 [Example 13, 1-(5-(Azetidine-1-carbonyl)pyrazin-2-yl)-3,3-dimethyl-6-(2-methylpyrimidin-5-yl)indolin-2-one] | 767 |
| COCCN(C)C(=O)c1cnc(N2C(=O)C(C)(C)c3ccc(-c4cnc(C)nc4)cc32)cn1 [Example 14, 5-(3,3-Dimethyl-6-(2-methylpyrimidin-5-yl)-2-oxoindolin-1-yl)-N-(2-methoxyethyl)-N-methylpyrazine-2-carboxamide] | 186 |
| Cc1ncc(-c2ccc3c(c2)N(c2cnc(C(N)=O)cn2)C(=O)C3(C)C)cn1 [Example 15, 5-(3,3-Dimethyl-6-(2-methylpyrimidin-5-yl)-2-oxoindolin-1-yl)pyrazine-2-carboxamide] | 391 |
| Cc1ncc(-c2ccc3c(c2)N(c2nccc(C(=O)N(C)C)n2)C(=O)C3(C)C)cn1 [Example 17, 2-(3,3-Dimethyl-6-(2-methylpyrimidin-5-yl)-2-oxoindolin-1-yl)-N,N-dimethylpyrimidine-4-carboxamide] | 537 |
| CNC(=O)c1nc(N2C(=O)C(C)(C)c3ccc(-c4cnc(C)nc4)cc32)ncc1C [Example 18, 2-(3,3-Dimethyl-6-(2-methylpyrimidin-5-yl)-2-oxoindolin-1-yl)-N,5-dimethylpyrimidine-4-carboxamide] | 78.4 |
| Cc1ncc(-c2ccc3c(c2)N(c2ccnc(C(=O)N(C)C)n2)C(=O)C3(C)C)cn1 [Example 19, 4-(3,3-Dimethyl-6-(2-methylpyrimidin-5-yl)-2-oxoindolin-1-yl)-N,N-dimethylpyrimidine-2-carboxamide] | 725 |
| CNC(=O)c1nccc(N2C(=O)C(C)(C)c3ccc(-c4cnc(C)nc4)cc32)n1 [Example 20, 4-(3,3-Dimethyl-6-(2-methylpyrimidin-5-yl)-2-oxoindolin-1-yl)-N-methylpyrimidine-2-carboxamide] | 120 |
| Cc1ncc(-c2ccc3c(c2)N(c2ccc(C(=O)N(C)C)nn2)C(=O)C3(C)C)cn1 [Example 21, 6-(3,3-Dimethyl-6-(2-methylpyrimidin-5-yl)-2-oxoindolin-1-yl)-N,N-dimethylpyridazine-3-carboxamide] | 964 |
| Cc1ncc(-c2ccc3c(c2)N(c2cccc(C(=O)N(C)C)n2)C(=O)C3(C)C)cn1 [Example 23, 6-(3,3-Dimethyl-6-(2-methylpyrimidin-5-yl)-2-oxoindolin-1-yl)-N,N-dimethylpicolinamide] | 374 |
| Cc1ncc(-c2ccc3c(c2)N(c2cccc(C(=O)NCC4CC4)n2)C(=O)C3(C)C)cn1 [Example 25, N-(Cyclopropylmethyl)-6-(3,3-dimethyl-6-(2-methylpyrimidin-5-yl)-2-oxoindolin-1-yl)picolinamide] | 49.9 |

Continued, values first:

| IC50 [nM] | Compound |
| --- | --- |
| 413 | 5-(3,3-Dimethyl-6-(2-methylpyrimidin-5-yl)-2-oxoindolin-1-yl)-N,2-dimethylnicotinamide [Example 41] |
| 253 | Cc1ncc(-c2ccc3c(c2)N(c2cccc(C(N)=O)n2)C(=O)C3(C)C)cn1 [Example 26, 6-(3,3-Dimethyl-6-(2-methylpyrimidin-5-yl)-2-oxoindolin-1-yl)picolinamide] |
| 14.8 | CNC(=O)c1nc(N2C(=O)C(C)(C)c3ccc(-c4cnc(C)nc4)cc32)ccc1C [Example 27, 6-(3,3-Dimethyl-6-(2-methylpyrimidin-5-yl)-2-oxoindolin-1-yl)-N,3-dimethylpicolinamide] |
| 351 | Cc1ncc(-c2ccc3c(c2)N(c2ccc(C)c(C(=O)N(C)C)n2)C(=O)C3(C)C)cn1 [Example 28, 6-(3,3-Dimethyl-6-(2-methylpyrimidin-5-yl)-2-oxoindolin-1-yl)-N,N,3-trimethylpicolinamide] |
| 608 | Cc1ncc(-c2ccc3c(c2)N(c2cncc(C(=O)N(C)C)c2)C(=O)C3(C)C)cn1 [Example 30, 5-(3,3-Dimethyl-6-(2-methylpyrimidin-5-yl)-2-oxoindolin-1-yl)-N,N-dimethylnicotinamide] |
| 202 | Cc1ncc(-c2ccc3c(c2)N(c2cncc(C(=O)N4CCC4)c2)C(=O)C3(C)C)cn1 [Example 31, 1-(5-(Azetidine-1-carbonyl)pyridin-3-yl)-3,3-dimethyl-6-(2-methylpyrimidin-5-yl)indolin-2-one] |
| 477 | Cc1ncc(-c2ccc3c(c2)N(c2cncc(C(=O)NCC(F)(F)F)c2)C(=O)C3(C)C)cn1 [Example 32, 5-(3,3-Dimethyl-6-(2-methylpyrimidin-5-yl)-2-oxoindolin-1-yl)-N-(2,2,2-trifluoroethyl)nicotinamide] |
| 559 | CNC(=O)c1cncc(N2C(=O)C(C)(C)c3ccc(-c4cnc(C)nc4)cc32)c1 [Example 33, 5-(3,3-Dimethyl-6-(2-methylpyrimidin-5-yl)-2-oxoindolin-1-yl)-N-methylnicotinamide] |
| 1140 | CNC(=O)c1cc(N2C(=O)C(C)(C)c3ccc(-c4cnc(C)nc4)cc32)cc(C)n1 [Example 34, 4-(3,3-Dimethyl-6-(2-methylpyrimidin-5-yl)-2-oxoindolin-1-yl)-N,6-dimethylpicolinamide] |
| 534 | CNC(=O)c1cc(N2C(=O)C(C)(C)c3ccc(-c4cnc(C)nc4)cc32)ccn1 [Example 35, 4-(3,3-Dimethyl-6-(2-methylpyrimidin-5-yl)-2-oxoindolin-1-yl)-N-methylpicolinamide] |
| 637 | Cc1ncc(-c2ccc3c(c2)N(c2cnc4c(c2)C(=O)N(C)C4)C(=O)C3(C)C)cn1 [Example 36, 3-(3,3-Dimethyl-6-(2-methylpyrimidin-5-yl)-2-oxoindolin-1-yl)-6-methyl-6,7-dihydro-5H-pyrrolo[3,4-b]pyridin-5-one] |
| 668 | Cc1ncc(-c2ccc3c(c2)N(c2ccc4c(c2)C(=O)N(C)C4)C(=O)C3(C)C)cn1 [Example 37, 3,3-Dimethyl-1-(2-methyl-3-oxoisoindolin-5-yl)-6-(2-methylpyrimidin-5-yl)indolin-2-one] |
